Reference: PubChem BioAssay (NCI)
Where “and” joins values, the source holds several entries; their conditions need not be identical. Equal entries are not always repeated.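 A five-concentration, 48-hour dose response in 96-well plates underlies each endpoint, interpolated linearly between surrounding concentrations. Here, GI50 denotes the concentration required for 50% inhibition of growth. TGI denotes the concentration required for complete inhibition of growth.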

Legend:
Assay in all cases: NCI tumour cell line growth inhibition, 48 h
[1] = system: T-47D breast
[2] = system: NCI-H522 lung
[3] = system: OVCAR-4 ovarian
[4] = system: SK-MEL-28 melanoma
[5] = system: CAKI-1 renal
[6] = system: SNB-75 CNS
[7] = system: KM12 colon
[8] = system: A498 renal
[9] = system: HCT-15 colon
[10] = system: U251 CNS

SMILES | GI50 [1] [µM] | TGI [1] | GI50 [2] [µM] | TGI [2] [µM] | GI50 [3] [µM] | TGI [3] [µM] | GI50 [4] [µM] | TGI [4] [µM] | GI50 [5] [µM] | TGI [5] [µM] | GI50 [6] [µM] | TGI [6] [µM] | GI50 [7] [µM] | TGI [7] | GI50 [8] [µM] | TGI [8] [µM] | GI50 [9] [µM] | GI50 [10] [µM] | TGI [10] | TGI [9] [µM]
Oc1ccc(/C=N/Nc2nnc(N/N=C/c3ccc(O)cc3O)c3ccccc23)c(O)c1 | 0.384 | 0.633 µM and 1.64 µM | 0.253 | 0.799 | 0.449 | 5.31 | 0.552 | 5.26 | 0.334 | 0.671 | 0.361 | 1.44 | 0.375 | 0.8 µM and 1.54 µM | 1.33 | 3.51 | 0.332 | 0.312 | 0.976 µM and 5.34 µM | –
ClCc1ccc(Cn2cnc3nc(Cl)nc(Cl)c32)cc1 | 1.36 | 4.82 µM | 1.85 | 4.41 | 1.57 | 3.03 | 1.86 | 4 | 1.5 | 2.86 | 0.656 | 1.48 | 0.677 | 1.48 µM | 4.36 | 8.48 | 0.481 | 0.772 | 1.96 µM | 1.03
CC(C)C12CCC3(CCC4C(C)(C(=O)O)CCCC4(C)C3C1)C(CN)C2 (centres undefined) | – | > 100 µM | – | 70.3 | – | > 100 | – | > 100 | – | > 100 | – | > 100 | – | > 100 µM | – | 98.4 | – | – | > 100 µM | > 100
Cc1cc2c(SCc3ccccc3Cl)nc(N)nc2nc1C | – | > 100 µM | – | > 100 | – | > 100 | – | > 100 | – | > 100 | – | > 100 | – | > 100 µM | – | > 100 | – | – | > 100 µM | > 100
Cc1ccc(S(=O)(=O)NCc2cccc([N+](=O)[O-])c2)cc1 | – | > 100 µM | – | > 100 | – | > 100 | – | > 100 | – | > 100 | – | > 100 | – | > 100 µM | – | > 100 | – | – | > 100 µM | > 100
OCCn1c(-c2ccncc2)c(-c2ccc(F)cc2)c2ncccc21 | > 25 | > 25 µM | > 25 | > 25 | > 25 | > 25 | > 25 | > 25 | > 25 | > 25 | > 25 | > 25 | > 25 | > 25 µM | > 20.3 | > 25 | > 25 | > 25 | > 25 µM | > 25
Cc1c(-c2ccc(N3CCc4cccc(C(=O)Nc5nc6ccccc6s5)c4C3)nc2C(=O)O)cnn1CC12CC3CC(CC(C3)C1)C2 | 6.59 | 30.7 µM | 10.8 | 28 | 6.72 | 33.2 | 6.27 | 19.3 | 8.35 | 23.4 | 9.35 | 36.8 | 4.97 | 20.6 µM | < 0.01 | < 0.0127 | 6.08 | 7.04 | 30.2 µM | 19.9
O=C(Nc1cccc(C(F)(F)F)c1)Nc1cc(S(=O)(=O)NC2CC2)ccc1-c1ccsc1 | 3.16 | 15 µM | 3.05 | 13 | 3.78 | 15.4 | 5.1 | 18.5 | 4.47 | 18.6 | 3.45 | 16.4 | 4.46 | 16.1 µM | 2.45 | 7.31 | 3.27 | 3.78 | 13.6 µM | 12.8
